Experimental findings from patent US20040242641A1, “(1S,5S)-3-(5,6-dichloro-3-pyridinyl)-3,6-diazabicyclo[3.2.0]heptane is an effective analgesic agent” (priority 2003, published 2004) are described below.

Assay [1] concerns mechanical allodynia in the affected paw of animals that had undergone spinal nerve ligation. The experiment in a line: Spinal nerve (L5/L6) ligation neuropathic pain model, mechanical allodynia with von Frey filaments. The conditions noted are these: for ED50: Rattus norvegicus, read-out: Analgesic Effect ED50. The assay is classed as in vivo, rat. The source says:
Male Sprague Dawley rats (80-100 g) were purchased from Charles River (Portage, Mich.). Prior to surgery, animals were group-housed and maintained in a temperature regulated environment (lights on between 7:00 a.m. and 8:00 p.m.). Following nerve ligation surgery, animals were group housed. Rats had access to food and water ad libitum.
The L5 and L6 spinal nerves of anesthesized rats were tightly ligated in the manner described previously by S. H. Kim and J. M. Chung, PAIN 50:355 (1992). Briefly, an incision was made on the dorsal portion of the hip and the muscle was blunt dissected to reveal the spinal processes. The L6 transverse process was removed, and the left L5 and L6 spinal nerves were tightly ligated with 5.0 braided silk suture. The wound was cleaned, the membrane sewn with 4.0 dissolvable Vicryl suture and the skin closed with wound clips.
For the assessment of neuropathic pain, mechanical allodynia in the affected paw of animals that had undergone spinal nerve ligation was evaluated using von Frey filaments. As described previously by S. R. Chaplan, F. W. Bach, J. W. Pogrel, J. M. Chung, and T. L. Yaksh, “Quantitative assessment of tactile allodynia in the rat paw” J. Neurosci. Meth., 53:55-63 (1994) two weeks following surgery, rats were acclimated to the testing box that was constructed of plexiglass with a wire mesh floor to allow access to the planter surface of the hindpaws. Using the Dixons Up-Down method, a baseline level of allodynia was determined to have a withdrawal threshold of <4 g of pressure. […] The EC50 was determined to be 1 μmol/kg.

Assay [2] has as its target T1, ganglionic-like nicotinic acetylcholine receptor (nAChR) subtype in IMR-32 human neuroblastoma cells (Homo sapiens, UniProt P30926+P32297).
T1 construct: host or cells: IMR-32 human neuroblastoma cells
As to the kind of experiment: IMR-32 FLIPR assay, intracellular Ca2+ changes (side effect liability). The assay is classed as cell-based. As to the method: Cells were plated out at a density of 1×10^6 cells per well on black-walled, clear-bottomed, 96-well plates (Costar, Cambridge, Mass.) and used approximately 72 hours after plating. All plates were coated with polyethylenimine to aid in the adherence of the cells to the plate.
Changes in the intracellular Ca^2+ content of IMR-32 cells were measured using the calcium chelating dye Fluo-4 (Molecular Probes, Eugene, Oreg.) in conjunction with a Fluorescent Imaging Plate Reader (Molecular Devices, Sunnyvale, Calif.). The cell permeant acetoxymethyl (AM) ester form of […] was prepared to a concentration of 1 mM in anhydrous DMSO and 10% pluronic acid. The dye was then diluted to a final concentration of […] in growth media and placed on the cells for 1 hour at 37° C. Black-walled 96-well plates were utilized to reduce light scattering. The unincorporated dye was removed from the cells by excessive washing with the assay buffer (HETES buffer, 20 mM Hepes, 120 mM NaCl, 5 mM KCl, 1 mM MgCl2, 5 mM glucose, […], and 5 mM CaCl2). […] The intensity of the fluorescence was captured by the CCD camera every second for the first minute following the agonist addition with additional readings every 5 seconds for a total time period of 5 minutes. These images were digitally transferred to an interfaced PC and change in fluorescence intensity processed for each well. The exposure setting of the camera was 0.4 sec with an f-stop setting of […].
The IMR-32 FLIPR assay, described herein, measures cation […] that is mediated through the ganglionic-like nicotinic acetylcholine receptor (nAChR) subtype. Agents that facilitate cation […] of the ganglionic nAChR subtype have been linked to side effect liabilty such as cardiovascular pressor effects.

Assay [3] concerns the target T2, neuronal nicotinic acetylcholine receptors (Rattus norvegicus, UniProt P09483+P12390).
T2 construct: crude synaptic membrane preparations from whole rat brain; from tissue; host or cells: whole rat brain, crude synaptic membranes
As to the kind of experiment: [3H]-cytisine binding to neuronal nicotinic acetylcholine receptors, crude synaptic membranes from whole rat brain. The conditions noted are these: [3H]-CYT 1.25 nM, Cheng and Prusoff correction. As to the method:
(1S,5S)-3-(5,6-Dichloro-3-pyridinyl)-3,6-diazabicyclo [3.2.0]heptane was subjected to an vitro assay against the nicotinic acetylcholine receptor as described below.
Binding of [^3H]-cytisine ([^3H]-CYT) to neuronal nicotinic acetylcholine receptors was accomplished using crude synaptic membrane preparations from whole rat brain (Pabreza et al., Molecular Pharmacol., 1990, 39:9). Washed membranes were stored at −80° C. prior to use. Frozen aliquots were slowly thawed and resuspended in 20 volumes of buffer (containing: 120 mM NaCl, 5 mM KCl, 2 mM MgCl2, 2 mM CaCl2 and 50 mM Tris-Cl, pH 7.4 @4° C.). After centrifuging at 20,000×g for 15 minutes, the pellets were resuspended in 30 volumes of buffer.
Each test compound was dissolved in water to make 10 mM stock solutions, diluted (1 :100) with buffer (as above), and further taken through seven serial log dilutions to produce test solutions from 10^−5 to 10^−11 M.
Homogenate (containing 125-150 μg protein) was added to triplicate tubes containing the range of concentrations of test compound described above and [^3H]-CYT (1.25 nM) in a final volume of 500 μL. […] The filters are counted in 4 mL of Ecolume® (ICN). Nonspecific binding was determined in the presence of 10 μM (−)-nicotine and values were expressed as a percentage of total binding. […]

Assay [4] concerns scopolamine-induced cognitive deficit. As to the kind of experiment: Morris water maze, spatial discrimination version, scopolamine-induced cognitive deficit. The assay is classed as in vivo, rat. The conditions noted are these: about 0.001 to about 5 μmol/kg, 30 minutes prior to the test; scopolamine-HBr 0.3 mg/kg i.p. The protocol: Male, Long-Evans rats, 300-400 g, obtained from Charles River laboratories were used in this study. During two daily habituation sessions, rats are trained to find a visible escape platform in a pool (180 cm diameter and 60 cm high) filled to a depth of 37 cm with water made opaque with powdered milk. Water temperature is maintained at 26° C. On the second day of habituation training, latency to escape measures are obtained in order to assure that animals are assigned to groups without swim speed bias. For spatial discrimination training, two visible platforms, covered in aluminum foil, are present. The platforms remain in the same position (diagonal to each other) through 5 days of training. Only one of the platforms provides escape; the other, made of expanded polystyrene, will not support the animals' weight. Rats receive six trials/day, with start position changed from trial to trial. The number of contacts with the incorrect platform (errors) serves as the dependent variable.
A cognitive deficit, as measured by increased number of errors in the water maze test, is induced by i.p. administration of the muscarinic antagonist scopolamine-HBr (0.3 mg/kg), dosed 15 min prior to each daily discrimination training session (over five days total).

Setting [5] is: IMR-32, Table 1, relative to nicotine, read-out: IMR-32 activitiy % efficacy.
The mark [6] stands for this setting: Table 1, read-out: IMR-32 activitiy EC50.
The mark [7] stands for this setting: intraperitoneally 15 minutes before testing.

Like-named read-outs stand apart in the source and are kept apart here.

T1 sequence (P32297 32-505): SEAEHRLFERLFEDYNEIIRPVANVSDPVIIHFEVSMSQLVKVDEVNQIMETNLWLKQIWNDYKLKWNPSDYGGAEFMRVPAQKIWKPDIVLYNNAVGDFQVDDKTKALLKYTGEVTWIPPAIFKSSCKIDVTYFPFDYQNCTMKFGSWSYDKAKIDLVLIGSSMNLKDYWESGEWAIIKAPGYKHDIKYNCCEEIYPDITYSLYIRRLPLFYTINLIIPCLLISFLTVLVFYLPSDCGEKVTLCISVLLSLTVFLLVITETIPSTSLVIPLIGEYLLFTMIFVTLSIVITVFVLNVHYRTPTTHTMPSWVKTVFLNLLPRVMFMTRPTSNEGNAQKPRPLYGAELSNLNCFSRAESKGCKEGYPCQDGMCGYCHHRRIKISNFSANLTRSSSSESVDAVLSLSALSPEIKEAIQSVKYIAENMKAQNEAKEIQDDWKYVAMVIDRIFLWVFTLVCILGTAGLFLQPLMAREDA
T1 sequence (P30926 22-498): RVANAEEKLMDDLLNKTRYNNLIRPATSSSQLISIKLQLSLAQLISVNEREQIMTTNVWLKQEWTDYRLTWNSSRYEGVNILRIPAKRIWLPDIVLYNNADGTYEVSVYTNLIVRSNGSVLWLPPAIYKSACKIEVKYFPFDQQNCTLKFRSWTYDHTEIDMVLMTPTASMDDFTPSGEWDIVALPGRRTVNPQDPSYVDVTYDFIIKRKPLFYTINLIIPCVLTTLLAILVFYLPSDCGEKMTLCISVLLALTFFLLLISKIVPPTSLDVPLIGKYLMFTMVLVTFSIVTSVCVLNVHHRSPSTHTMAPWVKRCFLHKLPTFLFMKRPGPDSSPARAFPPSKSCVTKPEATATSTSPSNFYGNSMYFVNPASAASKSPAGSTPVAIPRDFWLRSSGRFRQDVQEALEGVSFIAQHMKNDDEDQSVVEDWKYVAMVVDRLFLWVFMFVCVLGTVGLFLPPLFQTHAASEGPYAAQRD
T2 sequence (P09483 31-630): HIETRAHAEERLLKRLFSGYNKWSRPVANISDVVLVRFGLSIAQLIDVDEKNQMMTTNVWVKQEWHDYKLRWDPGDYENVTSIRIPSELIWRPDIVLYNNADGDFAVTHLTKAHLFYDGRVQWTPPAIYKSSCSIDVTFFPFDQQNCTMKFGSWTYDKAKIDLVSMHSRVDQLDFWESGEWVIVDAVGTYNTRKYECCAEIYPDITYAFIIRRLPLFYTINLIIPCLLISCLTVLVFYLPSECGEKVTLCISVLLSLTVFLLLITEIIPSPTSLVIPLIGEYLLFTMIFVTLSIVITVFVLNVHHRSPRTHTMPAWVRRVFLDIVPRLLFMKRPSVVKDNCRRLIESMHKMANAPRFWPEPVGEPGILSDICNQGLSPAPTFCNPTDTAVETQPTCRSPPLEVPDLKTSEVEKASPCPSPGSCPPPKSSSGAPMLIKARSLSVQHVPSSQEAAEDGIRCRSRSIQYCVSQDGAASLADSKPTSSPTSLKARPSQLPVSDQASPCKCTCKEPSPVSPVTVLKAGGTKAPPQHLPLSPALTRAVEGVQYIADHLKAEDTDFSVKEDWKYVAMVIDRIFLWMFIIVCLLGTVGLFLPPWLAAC
T2 sequence (P12390 25-500): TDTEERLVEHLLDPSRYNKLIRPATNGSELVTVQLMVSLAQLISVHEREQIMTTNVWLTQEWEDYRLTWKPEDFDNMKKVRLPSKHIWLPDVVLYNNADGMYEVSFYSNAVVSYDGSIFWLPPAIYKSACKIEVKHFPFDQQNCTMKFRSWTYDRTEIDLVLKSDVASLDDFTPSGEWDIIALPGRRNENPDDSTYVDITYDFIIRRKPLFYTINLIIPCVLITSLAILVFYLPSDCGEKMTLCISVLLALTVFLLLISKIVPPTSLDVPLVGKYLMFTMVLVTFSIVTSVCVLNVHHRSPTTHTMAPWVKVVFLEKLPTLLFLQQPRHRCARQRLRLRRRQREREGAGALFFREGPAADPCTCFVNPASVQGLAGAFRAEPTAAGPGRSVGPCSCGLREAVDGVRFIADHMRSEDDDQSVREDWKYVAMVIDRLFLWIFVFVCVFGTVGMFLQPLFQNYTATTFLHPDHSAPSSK

What is called ED50 is the dose at which the effect has come halfway, by size or by number of responders. One may read the EC50 as the concentration at which the effect is half-maximal. On to `N#Cc1cncc(N2C[C@@H]3CN[C@@H]3C2)c1` [5-[(1S,5S)-3,6-diazabicyclo[3.2.0]hept-3-yl]nicotinonitrile], for which the ED50 in assay [1] was greater than 19 µmol/kg. Besides, in assay [2] (setting [5]), the Emax came out at 85%. The 50% effective concentration (EC50) in assay [2] (setting [6]) is 19900 nM.

`Cc1cc(N2C[C@@H]3CN[C@@H]3C2)cnc1Cl` [(1S,5S)-3-(6-chloro-5-methyl-3-pyridinyl)-3,6-diazabicyclo[3.2.0]heptane]: the ED50 in assay [1] was greater than 19 µmol/kg. This molecule also displayed an EC50 in assay [2] of 3400 nM. In addition, the Emax in assay [2] (setting [5]) was determined as 94%.

On to `Clc1ccc(C2CC3CCC2N3)cn1` (stereo not drawn) [epibatidine], for which the Emax in assay [2] (IMR-32, read-out: maximum efficacy compared to nicotine) was 137%.

For `N#Cc1cc(N2C[C@@H]3CN[C@@H]3C2)cnc1Br` [2-bromo-5-[(1S,5S)-3,6-diazabicyclo[3.2.0]hept-3-yl]nicotinonitrile], in assay [1], the 50% effective dose (ED50) is greater than 19 µmol/kg. This molecule also came in with a concentration for a half-maximal effect (EC50) in assay [2] of 1200 nM. The Emax in assay [2] (setting [5]) was found to be 103%.

Consider `COc1cncc(N2C[C@@H]3CN[C@@H]3C2)c1` [(1S,5S)-3-(5-methoxy-3-pyridinyl)-3,6-diazabicyclo[3.2.0]heptane], for which, in assay [1], the ED50 was greater than 19 µmol/kg. Moreover, in assay [2], it took 3800 nM to reach a half-maximal effect (EC50). Moreover, in assay [2] (setting [5]), the Emax was determined as 147%.

On to `Clc1cc(N2C[C@H]3CN[C@H]3C2)cnc1Cl` [(1R,5R)-3-(5,6-dichloro-3-pyridinyl)-3,6-diazabicyclo[3.2.0]heptane], for which, in assay [2] (setting [5]), the Emax came out at 106%. For the same molecule, in assay [2] (setting [6]), the EC50 turned out to be 78 nM.

For `c1cncc(N2C[C@@H]3CN[C@@H]3C2)c1` [(1S,5S)-3-(3-pyridinyl)-3,6-diazabicyclo[3.2.0]heptane], the ED50 in assay [1] was 20 µmol/kg. Besides, the Emax in assay [2] (setting [5]) was determined as 100%. Moreover, the EC50 in assay [2] (setting [6]) was determined as 23200 nM.

For `Clc1cc(N2C[C@@H]3CN[C@@H]3C2)cnc1Br` [(1S,5S)-3-(6-bromo-5-chloro-3-pyridinyl)-3,6-diazabicyclo[3.2.0]heptane], the ED50 in assay [1] is greater than 19 µmol/kg. The molecule also returned an EC50 in assay [2] of 1400 nM. The Emax in assay [2] (setting [5]) was 81%.

Take `Clc1ccc(N2C[C@@H]3CN[C@@H]3C2)cn1` [(1S,5S)-3-(6-chloro-3-pyridinyl)-3,6-diazabicyclo[3.2.0]heptane]: the 50% effective dose (ED50) in assay [1] came out at 11 µmol/kg. This molecule had an EC50 in assay [2] of 1400 nM. Also, the Emax in assay [2] (setting [5]) was 102%.

A word on the Ki: it is a dissociation constant, usually derived from enzyme kinetics or from competition with a known ligand. Low values mean higher affinity, high ones lower affinity. In turn, `Clc1cc(N2C[C@@H]3CN[C@@H]3C2)cnc1Cl` [(1S,5S)-3-(5,6-dichloro-3-pyridinyl)-3,6-diazabicyclo[3.2.0]heptane] registered a Ki in assay [3] of 0.1 nM. Besides, the ED50 in assay [1] (Table 1) is 1 µmol/kg. Besides, the “ED50 (increase in withdrawal threshold)” value in assay [1] (setting [7]) came out at 1 µmol/kg. In assay [1] (setting [7]), the “effect on withdrawal threshold” value is on record as “dose-dependent increase in the withdrawal threshold”. The “maximum effect on withdrawal threshold” value in assay [1] (intraperitoneally 15 minutes before testing, baseline threshold <4 g) came out at 15 g. The Emax came to 73% in assay [2] (setting [5]) and 73% in assay [2] (IMR-32, relative to 100 μM nicotine (100%), read-out: maximum efficacy compared to nicotine). The EC50 in assay [2] (percent maximal intensity relative to 100 μM nicotine, read-out: EC50 (calcium, IMR-32 cells)) was 5500 nM. The “effect on scopolamine-induced cognitive deficit in water maze (errors)” value in assay [4] was “reversed the cognitive deficit and normalized the performance of the animals in the water maze”.
